Laboratory results taken from patent US20190195897A1, “GLYCOSYLATED METABOLITES” (UNIVERSITEIT LEIDEN, priority 2015, published 2019).

What was measured:
RAW 267 cells = experiment: GlcChol in RAW 267 cells exposed to U18666A; type: cell-based; conditions: for increase of GlcChol in U18666A exposed cells: RAW 267 cells with U18666A, added agent present
Protocol: FIG. 5C: GlcChol (pmol/mg protein) in RAW 267 cells incubated with indicated concentration U18666A for 1 day in absence and presence of conduri.tol B-epoxide (CBE) inhibiting GBA.
FIG. 5D: GlcChol (pmol/mg protein) in RAW 267 cells incubated with 10 uM U18666A for 1 day and in subsequent absence and presence of 1 mM β-methylcyclodextrin (β-mCD) reducing intralysosomal cholesterol.

type 1 GD mice = experiment: Treatment of mice with induced Gaucher disease with GCS inhibitor; plasma GlcCer and GlcChol; type: in vivo; conditions: treated with GCS inhibitor
Excerpt: FIG. 2E: Plasma GlcChol (nM) in normal, type 1 GD mice untreated and treated with GENZ 112638.
As shown in FIG. 2A and FIG. 2B, the GlcChol concentration was markedly lower in tissues of GBA2-deficient animals, especially in thymus. In contrast, in the GBA-deficient LIMP-2 KO mice no reduction in GlcChol, but rather a small increase in levels was observed (FIG. 2A, 2B). An increase in GlcChol was also observed in liver of mice with an induced GBA deficiency in the white blood cell lineage (FIG. 2C). Efficient correction of GBA deficiency by gene therapy led to a concomitant reduction of GlcChol (FIG. 2C).
The following mice were used for investigation: GD1 mice in which GBA-deficiency was induced (31, 32); mice with spontaneous Niemann Pick Type C (33) and Npc1−/− mice (34); LIMP2−/− mice (35), and GBA2 −/− mice (22). Animals were sacrificed and tissue were immediately frozen and stored at −80° C.
For quantitative analysis of GlcChol in samples of plasma, we developed a LC-MS/MS method using the MRM mode of the transitions mentioned above. Firstly, GlcChol was extracted from plasma from a healthy individual according the method of Bligh and Dyer (28) with a few modifications. […]

type 1 GD patients = experiment: Plasma GlcChol in treated type 1 GD patients; type: in vivo, human; conditions: plasma specimens of type 1 GD patients
Protocol: FIG. 6C: Reduction in plasma GlcChol following Eliglustat treatment.
GlcChol levels in plasma of untreated symptomatic type 1 GD patients was determined as well as in NPC patients, carriers and healthy controls. […] The abnormalities are more pronounced when plasma GlcChol is related to Chol (FIG. 6B).
For quantitative analysis of GlcChol in samples of plasma, we developed a LC-MS/MS method using the MRM mode of the transitions mentioned above. Firstly, GlcChol was extracted from plasma from a healthy individual according the method of Bligh and Dyer (28) with a few modifications. 20 μL of plasma was pipetted in an Eppendorf tube (2 mL) and 20 μL of an internal standard solution, containing 0.1 pmol/μL of ^13C6-β-GlcChol in methanol, was added, followed by addition of 280 μL methanol and 150 μL of chloroform. After brief mixing, the sample was left at room temperature for 30 min, mixed occasionally and centrifuged for 10 min at 15700×g to spin down precipitated protein. The supernatant was transferred to an Eppendorf tube and 150 μL chloroform and 250 μL water were added to induce separation of phases. After centrifugation (5 min at 15700×g) the lower, hydrophobic phase was transferred to a clean Eppendorf tube and the upper phase was washed. by addition of 300 μL of chloroform. Lower phases were pooled and taken to dryness at 35° C. under a nitrogen stream. […]

COS7 cells = experiment: GlcChol in cultured COS7 cells incubated with inhibitors of GBA2 and GBA; type: cell-based; conditions: for increased cellular GlcChol level in cells with overexpressed GCS: COS7 cells with overexpressed GCS, 2 days with inhibitor
Protocol: FIG. 4A: GlcChol (nmol/g protein) in COS cells without overexpression of enzymes (control), overexpressed GBA2, GCS and both (GBA2+GCS). Cells were incubated for 2 days with indicated inhibitors of GBA2 (AMP-DNM) and GBA (CBE).
The GlcChol content of cultured COS7 cells and factors influencing this was determined. First the impact of overexpressed GBA2 and GCS was studied.
COS-7 cells were cultured in Iscove's modified Dulbecco's medium (Life Technologies, Carlsbad, Calif., USA) supplemented with 5% fetal bovine serum (FBS; Bodinco, Alkmaar, The Netherlands) and in the presence of penicillin/streptomycin Liffe Technologies, Carlsbad, Calif., USA under 5% CO2 at 37° C. […] After 72 h, the medium was removed, cells were washed trice with ice-cold PBS and harvested by scraping in 25 mM potassium-phosphate buffer, pH 6.5.
COS-7 cells overexpressing GBA2 and/or GCS were homogenized by sonication on ice. Prior to extraction, 2 pmol of ^13C-labelled GlcChol in methanol (used as an internal standard) was added to 180 μL of homogenate. Next, lipids were extracted according to the method of Bligh and Dyer by addition of methanol, chloroform and water (1:1:0.9, v/v/v) and the lower phase was taken to dryness under a stream of nitrogen. Isolated Is lipids were purified by water/butanol extraction (1:1, v/v) and 8-GlcChol was analyzed by LC-MS as described before.

CCN(CC)CCO[C@H]1CC[C@@]2(C)C(=CC[C@@H]3[C@@H]2CC[C@]2(C)C(=O)CC[C@@H]32)C1 [U18666A]
GlcChol in cells on induction of lysosomal cholesterol accumulation (RAW 267 cells; RAW 267 cells, 1 day): rapid increase

CCCCCCCC(=O)N[C@H](CN1CCCC1)[C@H](O)c1ccc2c(c1)OCCO2 [GENZ 112638]
elevated plasma GlcChol (type 1 GD mice): minor, not statistically significant, reduction
plasma GlcCer (type 1 GD mice): partial reduction

CCCCN1C[C@H](O)[C@@H](O)[C@H](O)[C@H]1CO [Zavesca]
plasma GlcChol following treatment (type 1 GD patients): not

CCCCCCCC(=O)N[C@H](CN1CCCC1)[C@H](O)c1ccc2c(c1)OCCO2 [Eliglustat]
plasma GlcChol following treatment (type 1 GD patients): prominent reduction

OC[C@@H]1[C@@H](O)[C@H](O)[C@@H](O)CN1CCCCCOCC12CC3CC(CC(C3)C1)C2 [AMP-DNM, N-(5-adamantane-1-yl-methoxy-pentyl)-deoxynojirimycin]
increased cellular GlcChol level in cells with overexpressed GCS (COS7 cells): the elevation in GlcChol was prevented
cellular GlcChol (COS7 cells; COS7 cells, low nanomolar inhibitor, 2 days): reduced cellular GlcChol

β-methylcyclodextrin [B-methyl-cyclodextrin]
increase of GlcChol in U18666A exposed cells (RAW 267 cells): prevented

O[C@H]1[C@H](O)[C@@H](O)[C@@H]2O[C@@H]2[C@@H]1O (racemic) [CBE, Conduritol B epoxide]
increase of GlcChol in U18666A exposed cells (RAW 267 cells): prevented completely
increased cellular GlcChol level in cells with overexpressed GCS (COS7 cells): did hardly diminish
